Broadly, the Tmax is the time from dosing to the highest level. In general, Cmax refers to the maximum level reached in the sampled fluid or tissue.

A short description of data set [1]: 5-Fluorouracil plasma pharmacokinetics. It is filed as in vivo, human. The following applies: for 5-Fluorouracil Cl: DL 3 (erlotinib 150 mg), individual values (n = 2).
The conditions of data set [2]: population pharmacokinetic analysis; cited from earlier work.
The conditions of data set [3]: human, in vivo.
A further data set concerns CRC. The settings on record: cited from earlier work.
The test system of data set [4] is patients with advanced colorectal cancer. The experiment in a line: Phase I toxicity assessment. The settings on record: with FOLFOX4 with or without bevacizumab, oral, advanced CRC.
Another data set can be described thus: clinical. The settings on record: human, in vivo; for Cmax: Erlotinib Cmax.
For another data set, the system named is patients. The following applies: cited from earlier work.

Molecules are shown by their SMILES. Like-named read-outs stand apart in the source and are kept apart here.

Turning to `O=c1[nH]cc(F)c(=O)[nH]1` [5-Fluorouracil], the entries for the “5-Fluorouracil Cl” value in data set [1] (column Combination) and in data set [1] (column Single Agent) were 313.2 L/h and 217.4 L/h, respectively. Also, in data set [1] (P = .97), the “5-Fluorouracil systemic clearance, effect of co-administration of erlotinib” value is given as “not markedly affected”.

For `C#Cc1cccc(Nc2ncnc3cc(OCCOC)c(OCCO)cc23)c1` [OSI-420], in data set [2], the “OSI-420 exposure as share of erlotinib exposure” value is listed as “approximately 10%”. Also, the “OSI-420 Cmax” value is listed as 60.8 ± 16.1 (3) ng/mL in data set [3] (50 mg), 67.8 ± 49.1 (8) ng/mL in data set [3] (100 mg) and 193.2 ± 92.6 (3) ng/mL in data set [3] (150 mg). In addition, the “OSI-420 Tmax” value is 2.00 (1.08–2.00, 3) hour in data set [3] (50 mg); 3.00 (1.03–25.03, 8) hour in data set [3] (100 mg); 9.95 (2.07–24.08, 3) hour in data set [3] (150 mg).

`C#Cc1cccc(Nc2ncnc3cc(OCCOC)c(OCCOC)cc23)c1` [erlotinib]: the “Response rates (RRs) of monotherapy trials” value in the data set with CRC is “negligible”. Besides, in data set [4], the “Maximum tolerated dose (MTD) of erlotinib” value is listed as 100 mg daily. Also, in the data set “clinical” (50 mg, Erlotinib Tmax), the Tmax was 1.08 h. The Cmax in the data set “clinical” (100 mg) amounted to 985 ± 576 ng/mL; in the data set “clinical” (150 mg) it was 1960 ± 1160 ng/mL. In addition, the “Dose level at which grade 3 diarrhea occurred” value in the data set on patients is on record as 200 mg. For the same compound, the Patients experiencing diarrhea in the data set with patients (erlotinib 100 mg/day) is 25%; with patients (erlotinib 150 mg/day), 86%.

Take `COc1cc2ncnc(Nc3ccc(F)c(Cl)c3)c2cc1OCCCN1CCOCC1` [gefitinib]: the “Response rates (RRs) of monotherapy trials” value in the data set with CRC is “negligible”.

The values above are taken from PMC3033228 (Clinical colorectal cancer, 2010).
